Source: ChEMBL document CHEMBL1201862, “PubChem BioAssay data set” (2004)
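Assay format: 96-well plates, 48-hour exposure. At the GI50, growth is halved.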 Calls of active or inactive are those of the source. Rule as the data show it: active = GI50 up to about 1.1 µM and inactive = higher.

Assays:
Assay in all cases: NCI tumour cell line growth inhibition, 48 h
[1] = test system: 786-0
[2] = test system: A498
[3] = test system: A549
[4] = test system: ACHN
[5] = test system: BT-549
[6] = test system: CAKI-1
[7] = test system: CCRF-CEM
[8] = test system: EKVX
[9] = test system: HCC 2998
[10] = test system: HCT-15
[11] = test system: HL-60
[12] = test system: HOP-92
[13] = test system: HT-29
[14] = test system: Hs-578T
[15] = test system: IGROV-1
[16] = test system: K562
[17] = test system: KM12
[18] = test system: LOX IMVI
[19] = test system: M14
[20] = test system: MCF7
[21] = test system: MOLT-4
[22] = test system: NCI-H226
[23] = test system: NCI-H23
[24] = test system: NCI-H460
[25] = test system: NCI/ADR-RES
[26] = test system: OVCAR-3
[27] = test system: OVCAR-4
[28] = test system: OVCAR-5
[29] = test system: OVCAR-8
[30] = test system: PC-3
[31] = test system: RPMI-8226
[32] = test system: SF-268
[33] = test system: SF-539
[34] = test system: SK-MEL-28
[35] = test system: SK-MEL-5
[36] = test system: SK-OV-3
[37] = test system: SN12C
[38] = test system: SNB-19
[39] = test system: SNB-75
[40] = test system: SR
[41] = test system: SW-620
[42] = test system: TK-10
[43] = test system: U-251
[44] = test system: UACC-62
[45] = test system: UO-31

## CN1C2=C(CC3=C1CC(C)(C)CC3=O)C(=O)CC(C)(C)C2
[1]
  GI50: > 100 µM (inactive)
[2]
  GI50: > 100 µM (inactive)
[3]
  GI50: > 100 µM (inactive)
[4]
  GI50: > 100 µM (inactive)
[5]
  GI50: > 100 µM (inactive)
[6]
  GI50: > 100 µM (inactive)
[7]
  GI50: > 100 µM (inactive)
[8]
  GI50: > 100 µM (inactive)
[9]
  GI50: > 100 µM (inactive)
[10]
  GI50: > 100 µM
[11]
  GI50: > 100 µM (inactive)
[12]
  GI50: > 100 µM (inactive)
[13]
  GI50: > 100 µM (inactive)
[14]
  GI50: > 100 µM (inactive)
[15]
  GI50: > 100 µM (inactive)
[16]
  GI50: > 100 µM (inactive)
[17]
  GI50: > 100 µM (inactive)
[18]
  GI50: > 100 µM (inactive)
[19]
  GI50: > 100 µM (inactive)
[20]
  GI50: > 100 µM (inactive)
[21]
  GI50: > 100 µM (inactive)
[22]
  GI50: > 100 µM (inactive)
[23]
  GI50: > 100 µM (inactive)
[24]
  GI50: > 100 µM (inactive)
[25]
  GI50: > 100 µM (inactive)
[26]
  GI50: > 100 µM (inactive)
[27]
  GI50: > 100 µM (inactive)
[28]
  GI50: > 100 µM (inactive)
[29]
  GI50: > 100 µM (inactive)
[30]
  GI50: > 100 µM (inactive)
[31]
  GI50: > 100 µM (inactive)
[32]
  GI50: > 100 µM (inactive)
[33]
  GI50: > 100 µM (inactive)
[34]
  GI50: > 100 µM (inactive)
[35]
  GI50: > 100 µM (inactive)
[36]
  GI50: > 100 µM (inactive)
[37]
  GI50: > 100 µM (inactive)
[38]
  GI50: > 100 µM (inactive)
[39]
  GI50: > 100 µM (inactive)
[40]
  GI50: > 100 µM (inactive)
[41]
  GI50: > 100 µM (inactive)
[42]
  GI50: > 100 µM (inactive)
[43]
  GI50: > 100 µM (inactive)
[44]
  GI50: > 100 µM (inactive)
[45]
  GI50: > 100 µM (inactive)
